For one experiment, the system named is A549 cells. As to the kind of experiment: Cell proliferation assay in A549 cells. The experiment is classed as cell-based, human.
The target of experiment [1] is T1, CRAF (Homo sapiens, UniProt P04049). To be noted: 293H cells overexpressing catC, indicated amounts for 1 h; cited from earlier work.
Target sequence in this assay (P04049 305-648 limits assumed, species assumed): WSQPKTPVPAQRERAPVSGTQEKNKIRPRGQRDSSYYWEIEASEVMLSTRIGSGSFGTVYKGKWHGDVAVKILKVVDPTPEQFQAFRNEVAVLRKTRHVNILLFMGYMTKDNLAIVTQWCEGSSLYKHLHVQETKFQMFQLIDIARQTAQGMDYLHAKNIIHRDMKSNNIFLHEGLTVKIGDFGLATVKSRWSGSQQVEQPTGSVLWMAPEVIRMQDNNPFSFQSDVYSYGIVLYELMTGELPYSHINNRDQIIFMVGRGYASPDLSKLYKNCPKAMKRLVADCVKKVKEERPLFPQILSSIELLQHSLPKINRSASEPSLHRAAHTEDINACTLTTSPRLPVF
Experiment [2] relates to human lung (A549) carcinoma cell line. Put plainly: Cell viability assay in A549 cells. The experiment is classed as cell-based.
Experiment [3] addresses RAF dimerization (BRAF and CRAF) (Homo sapiens, UniProt P04049). Put plainly: RAF dimerization, immunoblot of BRAF and CRAF immunoprecipitates from XPA-1 cells. In kind it is cell-based. On the set-up: immunoblot analysis of BRAF and CRAF immunoprecipitates from XPA-1 cells; endogenous in cells; host or cells: XPA-1. The protocol:
(§1) FIGS. 6 and 7 illustrate immunoblot analysis of CRAF immunoprecipitated from XPA-1 cells treated with KG5 and KG38.
FIG. 14 illustrates immunoblot analysis of BRAF and CRAF immunoprecipitates from XPA-1 cells treated with PD0325901, Sorafenib, L-779450, PLX4720, KG5 or KG1.
(§2) Immunoprecipitation and Immunoblot Analysis Cells were lysed in either NP40 lysis buffer (150 mM NaCl, 50 mM Tris Base pH 7.4, 1% NP40) or RIPA buffer (50 mM Tris pH 7.4, 100 mM NaCl, 0.1% SDS) supplemented with complete protease inhibitor mixture (Roche), 50 mM NaF and 1 mM Na3VO4 and centrifuged at 13,000×g for 10 min at 4° C. Protein concentration was determined by BCA assay. […] of protein were immunoprecipitated with […] of anti-Flag (Sigma), anti-CRAF (BD Pharmingen), anti-Plk1 (Abcam), anti-γ-Tubulin (sigma) or anti-cenpF (Santa Cruz) antibodies overnight at 4° C. followed by capture with 25 μl of protein A/G (Pierce). Beads were washed five times, eluted in boiling Laemmli buffer, resolved on 10% SDS-PAGE and immunoblotting was performed with anti-Plk1 antibody (Abcam), anti-CRAF antibody (BD Pharmingen), anti-Aurora A (Abcam), anti-phospho-S338 CRAF (Cell Signaling), anti-phospho-T210 Plk1 or anti-phospho-T288 Aurora A (Cell signaling) diluted 1:1000. For immunoblot analysis, […] of protein was boiled in […]
For orientation: Immunoblotting shows a protein as a band on a membrane.

Experiment [4] concerns human breast (MDA-MB-231) carcinoma cell line. As to the kind of experiment: Cell viability assay in MDA-MB-231 cells. In kind it is cell-based.
Experiment [5] deals with T1, CRAF. As to the kind of experiment: Phospho-S338 CRAF immunoblot in XPA-1 cells. Set-up: total CRAF and total MEK of lysates from XPA-1 cells treated with PD0325901, Sorafenib, L-779450, PLX4720, KG5 or KG1; endogenous in cells; host or cells: XPA-1. The experiment is classed as cell-based. The protocol:
as §1
Target sequence in this assay (P04049 whole entry): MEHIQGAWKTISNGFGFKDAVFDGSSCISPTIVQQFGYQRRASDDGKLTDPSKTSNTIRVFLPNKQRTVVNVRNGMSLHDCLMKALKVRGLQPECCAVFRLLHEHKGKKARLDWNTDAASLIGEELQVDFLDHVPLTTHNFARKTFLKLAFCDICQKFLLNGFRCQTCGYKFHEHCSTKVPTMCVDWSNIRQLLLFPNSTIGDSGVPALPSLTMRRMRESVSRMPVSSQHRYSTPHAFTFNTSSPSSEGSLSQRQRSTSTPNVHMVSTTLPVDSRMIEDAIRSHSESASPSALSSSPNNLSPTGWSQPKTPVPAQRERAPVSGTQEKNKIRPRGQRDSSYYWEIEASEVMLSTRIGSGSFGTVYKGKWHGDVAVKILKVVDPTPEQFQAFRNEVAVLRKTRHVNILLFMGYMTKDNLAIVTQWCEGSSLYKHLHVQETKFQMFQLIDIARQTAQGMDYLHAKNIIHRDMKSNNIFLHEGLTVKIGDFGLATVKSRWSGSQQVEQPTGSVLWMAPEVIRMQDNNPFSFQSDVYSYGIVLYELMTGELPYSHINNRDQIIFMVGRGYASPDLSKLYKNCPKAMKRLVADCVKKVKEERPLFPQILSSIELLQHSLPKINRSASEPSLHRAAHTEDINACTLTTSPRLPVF
FIG. 13 illustrates immunoblot analysis of phospho-5338 CRAF, phospho-MEK, total CRAF and total MEK of lysates from XPA-1 cells treated with PD0325901, Sorafenib, L-779450, PLX4720, KG5 or KG1.
as §2

Experiment [6] concerns human breast (T47D) carcinoma cell line. As to the kind of experiment: Cell viability assay in T47D cells. In kind it is cell-based.

The text below walks through data of patent publication US20130266636A1, “METHODS FOR BLOCKING CELL PROLIFERATION AND TREATING DISEASES AND CONDITIONS RESPONSIVE TO CELL GROWTH INHIBITION” (THE REGENTS OF THE UNIVERSITY OF CALIFORNIA, priority 2010, published 2013).

Sequence of RAF dimerization (BRAF and CRAF) (P04049 whole entry): as above

On to `CCCS(=O)(=O)Nc1ccc(F)c(C(=O)c2c[nH]c3ncc(Cl)cc23)c1F` [PLX4720], for which the cell proliferation result in the experiment with A549 cells is reported as “induce proliferation”. At CRAF [1], the “phosphorylation at S338 (pS338-CRAF immunoblot)” value was “steadily increased”.

As to `CSc1nc(N)cc(Oc2ccc(-c3cnc(Nc4cccc(C(F)(F)F)c4)[nH]3)cc2)n1` [K38-B], the cell viability entry in experiment [2] (A549), in experiment [4] (MDA-MB-231) and in experiment [6] (T47D) was “decrease cell viability” in each case. In addition, the “potency relative to KG5 (cell viability EC50s)” value in experiment [2] (A549), in experiment [4] (MDA-MB-231) and in experiment [6] (T47D) was “more potent than KG5” throughout. Also, the EC50 result in experiment [2] (A549 lung cancer cells), in experiment [4] (MDA-MB-231 breast cancer cell viability assays) and in experiment [6] (T47D breast cancer cells) was “approach picomolar (pM) EC50s” in each case. In experiment [3], the RAF dimerization entry is given as “prevent RAF dimerization”. Besides, the “serine 338 phosphorylation on CRAF” value at CRAF [5] is “prevent”.
